Experiments:
NHE3 = target: T1, NHE3 (Homo sapiens, UniProt P48764); test: Cell-based assay of NHE-3 activity (pre-incubation inhibition), human; conditions: human Preincubation
T1 construct: expressed in transfected cells
T1 sequence (P48764 26-834): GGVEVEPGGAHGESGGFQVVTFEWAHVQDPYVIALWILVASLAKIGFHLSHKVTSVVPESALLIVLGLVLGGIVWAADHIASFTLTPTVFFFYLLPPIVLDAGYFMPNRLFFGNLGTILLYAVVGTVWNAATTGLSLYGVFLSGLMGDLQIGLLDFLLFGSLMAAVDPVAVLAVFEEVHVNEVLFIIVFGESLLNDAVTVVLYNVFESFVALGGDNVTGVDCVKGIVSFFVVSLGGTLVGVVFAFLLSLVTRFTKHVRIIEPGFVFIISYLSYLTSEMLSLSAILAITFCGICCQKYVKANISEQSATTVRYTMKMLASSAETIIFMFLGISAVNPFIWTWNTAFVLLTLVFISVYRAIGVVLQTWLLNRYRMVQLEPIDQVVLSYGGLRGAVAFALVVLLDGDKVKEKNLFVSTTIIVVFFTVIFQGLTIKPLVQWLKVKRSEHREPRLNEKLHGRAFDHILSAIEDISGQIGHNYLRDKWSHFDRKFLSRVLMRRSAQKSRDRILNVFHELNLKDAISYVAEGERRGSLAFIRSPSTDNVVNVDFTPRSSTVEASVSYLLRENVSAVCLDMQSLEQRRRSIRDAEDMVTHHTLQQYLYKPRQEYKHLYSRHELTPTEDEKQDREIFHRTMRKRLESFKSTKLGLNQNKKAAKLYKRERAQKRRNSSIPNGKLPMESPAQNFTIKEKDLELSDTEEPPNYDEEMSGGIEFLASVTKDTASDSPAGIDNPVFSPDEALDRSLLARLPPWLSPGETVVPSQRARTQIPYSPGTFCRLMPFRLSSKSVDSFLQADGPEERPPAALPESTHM
T1 sequence (Q99653 2-195 partner limits assumed): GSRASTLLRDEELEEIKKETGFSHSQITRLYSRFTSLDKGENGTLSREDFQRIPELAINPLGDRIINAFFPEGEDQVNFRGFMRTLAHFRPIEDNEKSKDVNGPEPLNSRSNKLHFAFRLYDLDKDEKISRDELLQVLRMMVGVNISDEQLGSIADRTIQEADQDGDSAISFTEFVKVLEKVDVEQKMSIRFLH
Method in brief: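 PS120 fibroblasts stably expressing human NHE3 and NHERF2, loaded 30 min at 37 °C with 5 μM BCECF-AM in NH4Cl buffer, then acidified 10 min at room temperature in Na+-free buffer with 0–30 μM compound. Initial rate of BCECF fluorescence ratio change (FLIPR) per minute taken as Na+/H+ activity.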

[1] = system: human duodenum monolayer culture; test: Sustained inhibition of apical acid secretion in human organoid monolayer cell cultures (duodenum); format: cell-based; conditions: Homo sapiens
Method in brief: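 Duodenum organoid cells were plated on Transwells, differentiated with EGF/noggin/A83-01 from day 3, and dosed apically on day 6 with compound at 1 μM final (DMSO vehicle control), in duplicate wells, at 37° C, 5% CO2. Apical media pH was measured by electrode on day 8.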

Compound	% inhibition (NHE3)	pIC50 (NHE3; 0-30 μM test compound)	IC50 (NHE3; 0-30 μM test compound) [nM]	inhibition at 1 µM [1] [%]
Cc1cc(S(=O)(=O)N2CC[C@@H](COCCOCCNC(=O)NCCCCNC(=O)NCCOCCOC[C@@H]3CCN(S(=O)(=O)c4ccc(O[C@H]5c6cc(Cl)cc(Cl)c6C[C@@H]5N(C)C)c(C)c4)C3)C2)ccc1O[C@H]1c2cc(Cl)cc(Cl)c2C[C@@H]1N(C)C [Example 45, 3-[2-(2-[[(3R)-1-[(4-[[(1S,2S)-4,6-Dichloro-2-(dimethylamino)-2,3-dihydro-1H-inden-1-yl]oxy]-3-methylbenzene)sulfonyl]pyrrolidin-3-yl]methoxy]ethoxy)ethyl]-1-[4-([[2-(2[[(3R)-1-[(4-[[(1S,2S)-4,6-dichloro-2-(dimethylamino)-2,3-dihydro-1H-inden-1-yl]oxy]-3-methylbenzene)sulfonyl]pyrrolidin-3-yl]methoxy]ethoxy)ethyl]carbamoyl]amino)butyl]urea; bis(trifluoroacetic acid)]	C (>70%)	C (NHE3 pIC50 > 7)		> 70
Cc1cc(S(=O)(=O)N2CC[C@@H](COc3ccnc(CNC(=O)NCCCCNC(=O)NCc4cc(OC[C@@H]5CCN(S(=O)(=O)c6ccc(O[C@H]7c8cc(Cl)cc(Cl)c8C[C@@H]7N(C)C)c(C)c6)C5)ccn4)c3)C2)ccc1O[C@H]1c2cc(Cl)cc(Cl)c2C[C@@H]1N(C)C [Example 49, 3-[(4-[[(3R)-1-[(4-[[(1S,2S)-4,6-Dichloro-2-(dimethylamino)-2,3-dihydro-1H-inden-1-yl]oxy]-3-methylbenzene)sulfonyl]pyrrolidin-3-yl]methoxy]pyridin-2-yl)methyl]-1-[4-([[(4-[[(3R)-1-[(4-[[(1S,2S)-4,6-dichloro-2-(dimethylamino)-2,3-dihydro-1H-inden-1-yl]oxy]-3-methylbenzene)sulfonyl]pyrrolidin-3-yl]methoxy]pyridin-2-yl)methyl]carbamoyl]amino)butyl]urea]	C (>70%)	B (NHE3 pIC50 6-7)		> 70
Cc1cc(S(=O)(=O)N[C@H]2CCN(CCOCCNC(=O)NCCCCNC(=O)NCCOCCN3CC[C@H](NS(=O)(=O)c4ccc(O[C@H]5c6cc(Cl)cc(Cl)c6C[C@@H]5N(C)C)c(C)c4)C3)C2)ccc1O[C@H]1c2cc(Cl)cc(Cl)c2C[C@@H]1N(C)C [Example 52, 3-(2-[2-[(3S)-3-[(4-[[(1S,2S)-4,6-Dichloro-2-(dimethylamino)-2,3-dihydro-1H-inden-1-yl]oxy]-3-methylbenzene)sulfonamido]pyrrolidin-1-yl]ethoxy]ethyl)-1-(4-[[(2-[2-[(3S)-3-[(4-[[(1S,2S)-4,6-dichloro-2-(dimethylamino)-2,3-dihydro-1H-inden-1-yl]oxy]-3-methylbenzene)sulfonamido]pyrrolidin-1-yl]ethoxy]ethyl)carbamoyl]amino]butyl)urea]	C (>70%)	C (NHE3 pIC50 > 7)		> 70
Cc1cc(S(=O)(=O)N[C@@H]2CCN(CCOCCNC(=O)NCCCCNC(=O)NCCOCCN3CC[C@@H](NS(=O)(=O)c4ccc(O[C@H]5c6cc(Cl)cc(C#N)c6C[C@@H]5N(C)C)c(C)c4)C3)C2)ccc1O[C@H]1c2cc(Cl)cc(C#N)c2C[C@@H]1N(C)C [Example 55, 3-(2-[2-[(3R)-3-[(4-[[(1S,2S)-6-Chloro-4-cyano-2-(dimethylamino)-2,3-dihydro-1H-inden-1-yl]oxy]-3-methylbenzene)sulfonamido]pyrrolidin-1-yl]ethoxy]ethyl)-1-(4-[[(2-[2-[(3R)-3-[(4-[[(1S,2S)-6-chloro-4-cyano-2-(dimethylamino)-2,3-dihydro-1H-inden-1-yl]oxy]-3-methylbenzene)sulfonamido]pyrrolidin-1-yl]ethoxy]ethyl)carbamoyl]amino]butyl)urea]	C (>70%)			50 to 70
Cc1cc(S(=O)(=O)N[C@H]2CCN(CCOCCNC(=O)NCCCCNC(=O)NCCOCCN3CC[C@H](NS(=O)(=O)c4ccc(O[C@H]5c6cc(Cl)cc(Cl)c6C[C@@H]5N(C)C)c(C)c4)C3=O)C2=O)ccc1O[C@H]1c2cc(Cl)cc(Cl)c2C[C@@H]1N(C)C [Example 91, 1-(2-[2-[(3S)-3-[(4-[[(1S,2S)-4,6-Dichloro-2-(dimethylamino)-2,3-dihydro-1H-inden-1-yl]oxy]-3-methylbenzene)sulfonamido]-2-oxopyrrolidin-1-yl]ethoxy]ethyl)-3-(4-[[(2-[2-[(3S)-3-[(4-[[(1S,2S)-4,6-dichloro-2-(dimethylamino)-2,3-dihydro-1H-inden-1-yl]oxy]-3-methylbenzene)sulfonamido]-2-oxopyrrolidin-1-yl]ethoxy]ethyl)carbamoyl]amino]butyl)urea]	C (>70%)	C (NHE3 pIC50 > 7)		> 70

The next lines start with results.

% inhibition (NHE3)	pIC50 (NHE3; 0-30 μM test compound)	IC50 (NHE3; 0-30 μM test compound) [nM]	Compound	inhibition at 1 µM [1] [%]
C (>70%)		< 100	O=C(NCCCCNC(=O)NCCOCCN1CC[C@@H](NS(=O)(=O)c2ccc(O[C@H]3c4cc(Cl)cc(Cl)c4C[C@@H]3N3CCNCC3)c(F)c2)C1)NCCOCCN1CC[C@@H](NS(=O)(=O)c2ccc(O[C@H]3c4cc(Cl)cc(Cl)c4C[C@@H]3N3CCNCC3)c(F)c2)C1 [Example 105, 4-([(1S,2S)-4,6-Dichloro-2-(piperazin-1-yl)-2,3-dihydro-1H-inden-1-yl]oxy)-N—[(R)-1-(20-[(R)-3-([4-([(1S2S)-4,6-dichloro-2-(piperazin-1-yl)-2,3-dihydro-1H-inden-1-yl]oxy)-3-fluorophenyl]sulfonamido)pyrrolidin-1-yl]-7,14-dioxo-3,18-dioxa-6,8,13,15-tetraazaicosyl)pyrrolidin-3-yl]-3-fluorobenzenesulfonamide; tetra(trifluoroacetate)]	> 70
C (>70%)			O=C(NCCCCNC(=O)NCCOCCN1CC[C@H](NS(=O)(=O)c2ccc(O[C@H]3c4cc(Cl)cc(Cl)c4C[C@@H]3N3CCNCC3)c(F)c2)C1)NCCOCCN1CC[C@H](NS(=O)(=O)c2ccc(O[C@H]3c4cc(Cl)cc(Cl)c4C[C@@H]3N3CCNCC3)c(F)c2)C1 [Example 106, 4-([(1S,2S)-4,6-Dichloro-2-(piperazin-1-yl)-2,3-dihydro-1H-inden-1-yl]oxy)-N—[(S)-1-(20-[(S)-3-([4-([(1S,2S)-4,6-dichloro-2-(piperazin-1-yl)-2,3-dihydro-1H-inden-1-yl]oxy)-3-fluorophenyl]sulfonamido)pyrrolidin-1-yl]-7,14-dioxo-3,18-dioxa-6,8,13,15-tetraazaicosyl)pyrrolidin-3-yl]-3-fluorobenzenesulfonamide; tetra(trifluoroacetate)]	> 70
C (>70%)	C (NHE3 pIC50 > 7)		N#Cc1cc(Cl)cc2c1C[C@H](N1CCNCC1)[C@H]2Oc1ccc(S(=O)(=O)N[C@H]2CCN(CCOCCNC(=O)NCCCCNC(=O)NCCOCCN3CC[C@H](NS(=O)(=O)c4ccc(O[C@H]5c6cc(Cl)cc(C#N)c6C[C@@H]5N5CCNCC5)cc4)C3)C2)cc1 [Example 107, 4-([(1S,2S)-6-Chloro-4-cyano-2-(piperazin-1-yl)-2,3-dihydro-1H-inden-1-yl]oxy)-N—[(S)-1-(20-[(S)-3-([4-([(1S,2S)-6-chloro-4-cyano-2-(piperazin-1-yl)-2,3-dihydro-1H-inden-1-yl]oxy)phenyl]sulfonamido)pyrrolidin-1-yl]-7,14-dioxo-3,18-dioxa-6,8,13,15-tetraazaicosyl)pyrrolidin-3-yl]benzenesulfonamide; tetra(trifluoroacetate)]	> 70

From patent US11242337B2, “Compounds useful for treating gastrointestinal tract disorders” (Ardelyx, Inc., priority 2017, dated 2022)
